Measurements: PubChem BioAssay AID1963831 (Molecular Pharmacology Branch, DTP, NCI, 2024)

System: 889142-216-R-J1-PDC complex spheroid viability
Assay: Anticancer human tumor 889142-216-R-J1-PDC patient-derived bladder carcinoma cell line growth inhibition [POLQ]
Conditions: for IC50: curve of first compound; for viability, T/C: stronger effect = lower value
Summary of the method: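 Complex spheroid viability model combining PDC tumour cells with endothelial (HUVEC) and MSC stromal cells. Novobiocin, ART-558 or RP6685 were tested singly and in combination with standard and investigational anticancer drugs. Each was titrated in half-log steps from near clinical Cmax, or from 10 microM where Cmax was unknown.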

[1] = second compound 0.0316 µM, first compound 0.0316 µM
[2] = second compound 0.0316 µM, first compound 0.1 µM
[3] = second compound 0.0316 µM, first compound 0.316 µM
[4] = second compound 0.0316 µM, first compound 1 µM
[5] = second compound 0.0316 µM, first compound 3.16 µM
[6] = second compound 0.0316 µM, first compound 10 µM
[7] = second compound 0.1 µM, first compound 0.0316 µM
[8] = second compound 0.1 µM, first compound 0.1 µM
[9] = second compound 0.1 µM, first compound 0.316 µM
[10] = second compound 0.1 µM, first compound 1 µM
[11] = second compound 0.1 µM, first compound 3.16 µM
[12] = second compound 0.1 µM, first compound 10 µM
[13] = second compound 0.316 µM, first compound 0.0316 µM
[14] = second compound 0.316 µM, first compound 0.1 µM
[15] = second compound 0.316 µM, first compound 0.316 µM
[16] = second compound 0.316 µM, first compound 1 µM
[17] = second compound 0.316 µM, first compound 3.16 µM
[18] = second compound 0.316 µM, first compound 10 µM
[19] = second compound 1 µM, first compound 0.0316 µM
[20] = second compound 1 µM, first compound 0.1 µM
[21] = second compound 1 µM, first compound 0.316 µM
[22] = second compound 1 µM, first compound 1 µM
[23] = second compound 1 µM, first compound 3.16 µM
[24] = second compound 1 µM, first compound 10 µM
[25] = second compound 3.16 µM, first compound 0.0316 µM
[26] = second compound 3.16 µM, first compound 0.1 µM
[27] = second compound 3.16 µM, first compound 0.316 µM
[28] = second compound 3.16 µM, first compound 1 µM
[29] = second compound 3.16 µM, first compound 3.16 µM
[30] = second compound 3.16 µM, first compound 10 µM
[31] = second compound 10 µM, first compound 0.0316 µM
[32] = second compound 10 µM, first compound 0.1 µM
[33] = second compound 10 µM, first compound 0.316 µM
[34] = second compound 10 µM, first compound 1 µM
[35] = second compound 10 µM, first compound 3.16 µM
[36] = second compound 10 µM, first compound 10 µM
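Further: spheroids exposed to compounds for seven days.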
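Wherever viability, T/C is given: 100% = DMSO vehicle control viability.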

With COc1cc2cc(C(=O)CCC(=O)O)sc2cc1OC + Nc1ccc(C#CCN(C(=O)Cc2ncc(C(F)(F)F)cc2C(F)(F)F)c2ccc(F)cc2)nn1 the IC50 (second compound 0.0316 µM) was greater than 10 µM, the IC50 (second compound 0.1 µM) was greater than 10 µM and the IC50 (second compound 0.316 µM) was greater than 10 µM. The IC50 (second compound 1 µM) was greater than 10 µM, the IC50 (second compound 3.16 µM) was greater than 10 µM and the IC50 (second compound 10 µM) was greater than 10 µM. The viability, T/C [1] was 88.3%, the viability, T/C [2] was 108% and the viability, T/C [3] was 96.6%. The viability, T/C [4] was 92.9%, the viability, T/C [5] was 108% and the viability, T/C [6] was 61.9%. It also gave a viability, T/C [7] of 108%, a viability, T/C [8] of 89% and a viability, T/C [9] of 82.7%. For the same molecule, the viability, T/C [10] was 115%, the viability, T/C [11] was 81.9% and the viability, T/C [12] was 79.2%. For the same molecule, the viability, T/C [13] was 91.7%, the viability, T/C [14] was 86.5% and the viability, T/C [15] was 94%. It also gave a viability, T/C [16] of 117%, a viability, T/C [17] of 78.2% and a viability, T/C [18] of 78.5%. The viability, T/C [19] was 82.5%, the viability, T/C [20] was 96.3% and the viability, T/C [21] was 93%. For the same molecule, the viability, T/C [22] was 89.5%, the viability, T/C [23] was 93.3% and the viability, T/C [24] was 68.2%. It also gave a viability, T/C [25] of 108%, a viability, T/C [26] of 83.6% and a viability, T/C [27] of 91.1%. For the same molecule, the viability, T/C [28] was 71.7%, the viability, T/C [29] was 87.2% and the viability, T/C [30] was 76.8%. For the same molecule, the viability, T/C [31] was 90.5%, the viability, T/C [32] was 79% and the viability, T/C [33] was 93.7%. The viability, T/C [34] was 101%, the viability, T/C [35] was 100% and the viability, T/C [36] was 89.4%.
COc1cc2cc(C(=O)CCC(=O)O)sc2cc1OC + COC1C(OC(N)=O)C(O)C(Oc2ccc3c(O)c(NC(=O)c4ccc(O)c(CC=C(C)C)c4)c(=O)oc3c2C)OC1(C)C gave an IC50 (second compound 0.0316 µM) greater than 10 µM, an IC50 (second compound 0.1 µM) greater than 10 µM and an IC50 (second compound 0.316 µM) greater than 10 µM. It also gave an IC50 (second compound 1 µM) greater than 10 µM, an IC50 (second compound 3.16 µM) greater than 10 µM and an IC50 (second compound 10 µM) greater than 10 µM. The viability, T/C [1] was 95.1%, the viability, T/C [2] was 93% and the viability, T/C [3] was 82.4%. It also gave a viability, T/C [4] of 114%, a viability, T/C [5] of 109% and a viability, T/C [6] of 70%. The viability, T/C [7] was 103%, the viability, T/C [8] was 106% and the viability, T/C [9] was 102%. The viability, T/C [10] was 96.9%, the viability, T/C [11] was 92.5% and the viability, T/C [12] was 81.1%. The viability, T/C [13] was 118%, the viability, T/C [14] was 120% and the viability, T/C [15] was 116%. It also gave a viability, T/C [16] of 90.6%, a viability, T/C [17] of 110% and a viability, T/C [18] of 83.6%. It also gave a viability, T/C [19] of 113%, a viability, T/C [20] of 106% and a viability, T/C [21] of 121%. The viability, T/C [22] was 113%, the viability, T/C [23] was 118% and the viability, T/C [24] was 83.9%. For the same molecule, the viability, T/C [25] was 91.2%, the viability, T/C [26] was 113% and the viability, T/C [27] was 103%. It also gave a viability, T/C [28] of 102%, a viability, T/C [29] of 111% and a viability, T/C [30] of 101%. It also gave a viability, T/C [31] of 103%, a viability, T/C [32] of 93.2% and a viability, T/C [33] of 111%. The viability, T/C [34] was 92.8%, the viability, T/C [35] was 103% and the viability, T/C [36] was 88.2%.
Work on COc1cc2cc(C(=O)CCC(=O)O)sc2cc1OC + Cc1cccc(N(C)C(=O)C2C(O)CCN2c2nc(C)cc(C(F)(F)F)c2C#N)c1 yielded an IC50 (second compound 0.0316 µM) greater than 10 µM, an IC50 (second compound 0.1 µM) greater than 10 µM and an IC50 (second compound 0.316 µM) greater than 10 µM. For the same molecule, the IC50 (second compound 1 µM) was greater than 10 µM, the IC50 (second compound 3.16 µM) was greater than 10 µM and the IC50 (second compound 10 µM) was greater than 10 µM. The viability, T/C [1] was 85.5%, the viability, T/C [2] was 127% and the viability, T/C [3] was 89.6%. The viability, T/C [4] was 99.1%, the viability, T/C [5] was 104% and the viability, T/C [6] was 76.6%. It also gave a viability, T/C [7] of 76.5%, a viability, T/C [8] of 101% and a viability, T/C [9] of 92.7%. For the same molecule, the viability, T/C [10] was 115%, the viability, T/C [11] was 104% and the viability, T/C [12] was 90.6%. It also gave a viability, T/C [13] of 109%, a viability, T/C [14] of 92.6% and a viability, T/C [15] of 72.3%. For the same molecule, the viability, T/C [16] was 104%, the viability, T/C [17] was 132% and the viability, T/C [18] was 74.5%. It also gave a viability, T/C [19] of 100%, a viability, T/C [20] of 114% and a viability, T/C [21] of 97.9%. It also gave a viability, T/C [22] of 96.9%, a viability, T/C [23] of 102% and a viability, T/C [24] of 66.4%. It also gave a viability, T/C [25] of 96.8%, a viability, T/C [26] of 85.8% and a viability, T/C [27] of 89.7%. The viability, T/C [28] was 94.4%, the viability, T/C [29] was 104% and the viability, T/C [30] was 78.9%. It also gave a viability, T/C [31] of 108%, a viability, T/C [32] of 88.5% and a viability, T/C [33] of 78.5%. The viability, T/C [34] was 80.1%, the viability, T/C [35] was 72.3% and the viability, T/C [36] was 65.6%.
